From patent US7714017B2, “Carboxylic acid peri-substituted bicyclics for occlusive artery disease” (Decode Genetics, EHF, priority 2004, dated 2010)

Target: T1, prostanoid EP3 receptors (Homo sapiens, UniProt P43115)
T1 sequence (P43115 1-390): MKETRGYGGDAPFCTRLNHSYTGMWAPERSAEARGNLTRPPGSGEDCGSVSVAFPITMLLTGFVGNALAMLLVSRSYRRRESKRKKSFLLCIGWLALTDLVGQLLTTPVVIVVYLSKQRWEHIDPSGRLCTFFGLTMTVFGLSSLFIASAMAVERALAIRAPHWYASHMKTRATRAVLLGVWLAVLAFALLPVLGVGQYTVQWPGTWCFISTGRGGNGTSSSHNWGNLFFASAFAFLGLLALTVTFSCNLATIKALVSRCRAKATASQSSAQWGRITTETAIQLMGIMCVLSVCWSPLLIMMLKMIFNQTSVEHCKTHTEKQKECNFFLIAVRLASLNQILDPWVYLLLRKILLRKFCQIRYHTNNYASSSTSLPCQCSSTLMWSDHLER
Assay: binding on prostanoid EP3 receptors (method of Abramovitz et al.)
Settings: Chart 1, read-out: Activity (EP3 receptor binding IC50 class)
Experimental: (§1) The compounds of the invention were assayed for their binding on prostanoid EP3 receptors according to the method of Abramovitz et al. [Bioch. Biophys. Acta, 1473, 285-293 (2000)]. […] Compounds with IC50<1 μM are shown as +++; compounds with IC50 1-10 μM are shown as ++; and compounds with IC50>10 μM are shown as +.
as §1, with “Acta.” for “Acta,”

Structure (SMILES)	IC50
O=Cc1cn(Cc2ccc(Cl)cc2Cl)c2c(/C=C/C(=O)O)cccc12 [Compound A11, (E)-3-[1-(2,4-Dichloro-benzyl)-3-formyl-1H-indol-7-yl]-acrylic acid]	< 1 µM
CC(C)c1cn(Cc2ccc(Cl)cc2Cl)c2c(CCC(=O)O)cccc12 [Compound A14]	1 to 10 µM
O=C(O)C=Cc1cccc2c1N(Cc1ccc3ccccc3c1)C(=O)C2(O)C(F)(F)F (stereo not drawn) [Compound A15, 3-(3-Hydroxy-1-naphthalen-2-ylmethyl-2-oxo-3-trifluoromethyl-2,3-dihydro-1H-indol-7-yl)-acrylic acid]	1 to 10 µM
O=C(O)/C=C/c1cccc2c1N(Cc1ccc(Cl)cc1Cl)C(=O)C2=O [Compound A17, (E)-3-[1-(2,4-Dichloro-benzyl)-2,3-dioxo-2,3-dihydro-1H-indol-7-yl]-acrylic acid]	1 to 10 µM
CC1(C)C(=O)N(Cc2ccc(Cl)cc2Cl)c2c(/C=C/C(=O)O)cccc21 [Compound A19, (E)-3-[1-(2,4-Dichloro-benzyl)-3,3-dimethyl-2-oxo-2,3-dihydro-1H-indol-7-yl]-acrylic acid]	1 to 10 µM
O=C(O)/C=C/c1cccc2c1N(Cc1ccc(Cl)cc1Cl)C(=O)C2(F)F [Compound A20, (E)-3-[1-(2,4-Dichloro-benzyl)-3,3-difluoro-2-oxo-2,3-dihydro-1H-indol-7-yl]-acrylic acid]	1 to 10 µM
O=C(O)COc1cccc2ncn(Cc3ccc4ccccc4c3)c12 [Compound A22, (3-Naphthalen-2-ylmethyl-3H-benzoimidazol-4-yloxy)-acetic acid]	> 10 µM
CC12CCCC(/C=C/C(=O)O)=C1N(Cc1ccc3ccccc3c1)C(=O)C2 (stereo not drawn) [Compound A24, (E)-3-(3a-Methyl-1-naphthalen-2-ylmethyl-2-oxo-2,3,3a,4,5,6-hexahydro-1H-indol-7-yl)-acrylic acid]	1 to 10 µM
Cn1nc(NC(=O)c2ccc3ccccc3c2)c2c(/C=C/C(=O)O)cccc21 [Compound A26, (E)-3-{1-Methyl-3-[(naphthalene-2-carbonyl)-amino]-1H-indazol-4-yl}-acrylic acid]	1 to 10 µM
CC12CCCC(/C=C/C(=O)O)=C1N(Cc1ccc(F)c(F)c1)C(=O)C2 (stereo not drawn) [Compound A30, (E)-3-[1-(3,4-Difluoro-benzyl)-3a-methyl-2-oxo-2,3,3a,4,5,6-hexahydro-1H-indol-7-yl]-acrylic acid]	1 to 10 µM
CN1C(=O)C(C(=O)Nc2ccc(Cl)cc2Cl)c2c(/C=C/C(=O)O)cccc21 (stereo not drawn) [Compound A33, (E)-3-[3-(2,4-Dichloro-phenylcarbamoyl)-1-methyl-2-oxo-2,3-dihydro-1H-indol-4-yl]-acrylic acid]	1 to 10 µM
CC12CCCC(/C=C/C(=O)O)=C1N(Cc1cccc(Cl)c1)C(=O)C2 (stereo not drawn) [Compound A35, (E)-3-[1-(3-Chloro-benzyl)-3a-methyl-2-oxo-2,3,3a,4,5,6-hexahydro-1H-indol-7-yl]-acrylic acid]	1 to 10 µM
CC12CCCC(/C=C/C(=O)O)=C1N(Cc1cccc(Cl)c1Cl)C(=O)C2 (stereo not drawn) [Compound A36, (E)-3-[1-(2,3-Dichloro-benzyl)-3a-methyl-2-oxo-2,3,3a,4,5,6-hexahydro-1H-indol-7-yl]-acrylic acid]	1 to 10 µM
Cn1cc(/C=C/C(=O)O)c2c(Oc3ccc(F)c(Cl)c3)cccc21 [Compound A38, (E)-3-[4-(3-Chloro-4-fluoro-phenoxy)-1-methyl-1H-indol-3-yl]-acrylic acid]	1 to 10 µM
Cn1cc(/C=C/C(=O)O)c2c(Oc3ccc(Cl)c(Cl)c3)cccc21 [Compound A39, (E)-3-[4-(3,4-Dichloro-phenoxy)-1-methyl-1H-indol-3-yl]-acrylic acid]	1 to 10 µM
Cn1cc(/C=C/C(=O)O)c2c(Oc3ccc(Cl)cc3)cccc21 [Compound A41, (E)-3-[4-(4-Chloro-phenoxy)-1-methyl-1H-indol-3-yl]-acrylic acid]	1 to 10 µM
Cn1cc(/C=C/C(=O)O)c2c(Oc3ccc(F)c(F)c3)cccc21 [Compound A42, (E)-3-[4-(3,4-Difluoro-phenoxy)-1-methyl-1H-indol-3-yl]-acrylic acid]	1 to 10 µM

Further lines, results first:

IC50	Structure (SMILES)
1 to 10 µM	O=C(O)CCc1csc2ncc(C=Cc3ccc4ccccc4c3)n12 (mixture of isomers) [Compound A23, 3-[5-((E)-2-Naphthalen-2-yl-vinyl)-imidazo[2,1-b]thiazol-3-yl]-propionic acid]
1 to 10 µM	O=C(O)/C=C/c1cnn2ccn(Cc3ccc4ccccc4c3)c12 [Compound A02, (E)-3-(1-Naphthalen-2-ylmethyl-1H-imidazo[1,2-b]pyrazol-7-yl)-acrylic acid]
1 to 10 µM	O=C(O)COc1cccc2oc(=O)n(Cc3ccc4ccccc4c3)c12 [Compound A04, (3-Naphthalen-2-ylmethyl-2-oxo-2,3-dihydro-benzooxazol-4-yloxy)-acetic acid]
1 to 10 µM	O=C(O)COc1cccc2oc(=O)n(Cc3ccc4c(c3)OCO4)c12 [Compound A05, (3-Benzo[1,3]dioxol-5-ylmethyl-2-oxo-2,3-dihydro-benzooxazol-4-yloxy)-acetic acid]
1 to 10 µM	O=C(O)COc1cccc2oc(=O)n(Cc3ccc(Cl)c(Cl)c3)c12 [Compound A06, [3-(3,4-Dichloro-benzyl)-2-oxo-2,3-dihydro-benzooxazol-4-yloxy]-acetic acid]
1 to 10 µM	O=C(O)COc1cccc2oc(=O)n(Cc3ccc(Cl)cc3Cl)c12 [Compound A07]
1 to 10 µM	Cc1ccc(C)c(Cn2c(=O)oc3cccc(OCC(=O)O)c32)c1 [Compound A08, [3-(2,5-Dimethyl-benzyl)-2-oxo-2,3-dihydro-benzooxazol-4-yloxy]-acetic acid]
< 1 µM	Cc1cn(Cc2ccc(Cl)cc2Cl)c2c(/C=C/C(=O)O)cccc12 [Compound A09, (E)-3-[1-(2,4-Dichloro-benzyl)-3-methyl-1H-indol-7-yl]-acrylic acid]
1 to 10 µM	O=C(O)/C=C/c1cccc2c(CO)cn(Cc3ccc(Cl)cc3Cl)c12 [Compound A10, (E)-3-[1-(2,4-Dichloro-benzyl)-3-hydroxymethyl-1H-indol-7-yl]-acrylic acid]
< 1 µM	COCc1cn(Cc2ccc(Cl)cc2Cl)c2c(/C=C/C(=O)O)cccc12 [Compound A12, (E)-3-[1-(2,4-Dichloro-benzyl)-3-methoxymethyl-1H-indol-7-yl]-acrylic acid]
1 to 10 µM	CC(=O)c1cn(Cc2ccc(Cl)cc2Cl)c2c(/C=C/C(=O)O)cccc12 [Compound A13, (E)-3-[3-Acetyl-1-(2,4-dichloro-benzyl)-1H-indol-7-yl]-acrylic acid]
< 1 µM	O=C(O)C=Cc1cccc2c1N(Cc1ccc(Cl)cc1Cl)C(=O)C21OCCO1 [Compound A16]
< 1 µM	O=C(O)COc1cccc2ncn(Cc3ccc(Cl)cc3Cl)c12 [Compound A21, [3-(2,4-Dichloro-benzyl)-3H-benzoimidazol-4-yloxy]-acetic acid]
< 1 µM	Cn1nc(NCC(=O)O)c2c(Oc3ccc4ccccc4c3)cccc21 [Compound A25, [1-Methyl-4-(naphthalen-2-yloxy)-1H-indazol-3-ylamino]-acetic acid]
< 1 µM	CC12CCCC(/C=C/C(=O)O)=C1N(Cc1cccc(F)c1)C(=O)C2 (stereo not drawn) [Compound A27, (E)-3-[1-(3-Fluoro-benzyl)-3a-methyl-2-oxo-2,3,3a,4,5,6-hexahydro-1H-indol-7-yl]-acrylic acid]
< 1 µM	CC12CCCC(/C=C/C(=O)O)=C1N(Cc1ccc(F)cc1)C(=O)C2 (stereo not drawn) [Compound A28, (E)-3-[1-(4-Fluoro-benzyl)-3a-methyl-2-oxo-2,3,3a,4,5,6-hexahydro-1H-indol-7-yl]-acrylic acid]
< 1 µM	COc1cccc(CN2C(=O)CC3(C)CCCC(/C=C/C(=O)O)=C23)c1 (stereo not drawn) [Compound A29, (E)-3-[1-(3-Methoxy-benzyl)-3a-methyl-2-oxo-2,3,3a,4,5,6-hexahydro-1H-indol-7-yl]-acrylic acid]
< 1 µM	Cc1cn(Cc2ccc(Cl)cc2Cl)c2c(/C=C/C(=O)O)cc(F)cc12 [Compound A31, (E)-3-[1-(2,4-dichloro-benzyl)-5-fluoro-3-methyl-1H-indol-7-yl]-acrylic acid]
< 1 µM	CC12CCCC(/C=C/C(=O)O)=C1N(Cc1ccc(Cl)cc1Cl)C(=O)C2 (stereo not drawn) [Compound A32, (E)-3-[1-(2,4-Dichloro-benzyl)-3a-methyl-2-oxo-2,3,3a,4,5,6-hexahydro-1H-indol-7-yl]-acrylic acid]
< 1 µM	CC12CCCC(/C=C/C(=O)O)=C1N(Cc1ccc(Cl)c(Cl)c1)C(=O)C2 (stereo not drawn) [Compound A34, (E)-3-[1-(3,4-Dichloro-benzyl)-3a-methyl-2-oxo-2,3,3a,4,5,6-hexahydro-1H-indol-7-yl]-acrylic acid]
< 1 µM	Cn1cc(/C=C/C(=O)O)c2c(Oc3ccc(F)cc3F)cccc21 [Compound A37, (E)-3-[4-(2,4-Difluoro-phenoxy)-1-methyl-1H-indol-3-yl]-acrylic acid]
< 1 µM	Cn1cc(/C=C/C(=O)O)c2c(Oc3ccc(Cl)cc3Cl)cccc21 [Compound A40, (E)-3-[4-(2,4-Dichloro-phenoxy)-1-methyl-1H-indol-3-yl]-acrylic acid]
